Test results from patent US20200291086A1, “BIOREVERSABLE PROMOIETIES FOR NITROGEN-CONTAINING AND HYDROXYL-CONTAINING DRUGS” (priority 2013, published 2020).
Numbered stars: 1 amine (or outer) side, 2 acyl side, 3 side chain; on linkers, the order of the positions; unused ones are H or OH. Square brackets hold non-standard residues; d marks the D form. Peptide text beside a SMILES is read from it. * marks the point of attachment. X13 = CCCCCCCCCC(=O)Nc1ccc2c(c1)CN([*:1])[C@H](C(=O)[*:2])C2; Phenylacetic(2-CH2NH2) = O=C(Cc1ccccc1CN[*:1])[*:2]; 2(aminomethyl)benzoyl = O=C(c1ccccc1CN[*:1])[*:2]; X6 = CCCCCCCCCC(=O)NCCCNC(=O)c1ccc(C(=O)*)c(CN)c1; X9 = NCCS(=O)(=O)c1ccc(C(=O)*)c(CN)c1; Tiq1c(1S) = O=C(O)[C@H]1NCCc2ccccc21; X11 = NCCCNC(=O)c1ccc(C(=O)*)c(CN)c1; X12 = Cc1cc(N)cc(C(=O)*)c1CN; X5 = Cc1cc(CN)cc(CN)c1C(=O)*; Decanoyl = CCCCCCCCCC(=O)*; X4 = NCc1ncccc1C(=O)*; X7 = NCc1cccnc1C(=O)*

assay: Determination of half life in PBS: cleavage of promoieties from capped model peptides; type: physicochemical; conditions: PBS, 37° C., 1 mg/mL, RP-HPLC; read-out: t 1/2 (h), cleavage of promoiety linked to N terminus of model peptide X-GIVEQAA (converted)
Method: Determination Of half Life in PBS
Polypeptides GIVEQAA-NH2 (SEQ ID NO: 57) and […] (SEQ ID NO: 58), two mimics of the N-terminus section of insulin A chain, were used as model peptides to determine the half lives of various promoieties linked to the N-terminus of the peptides through an amide bond. The model peptides were prepared with Fmoc chemistry, cleaved by TFA and purified by preparative RP-HPLC.
The promoiety capped model peptide was dissolved at 1 mg/mL concentration in PBS and the solution was incubated at 37° C. in a water bath. Samples were collected for analysis at different time points (e.g., 8 h, 16 h, 24 h, 48 h, 72 h, 96 h, 120 h). […] The promoiety cleavage was quenched by lowering pH to 2 by addition of 0.1% TFA solution. RP-HPLC was used to monitor the cleavage reactions and the cleavage rates were quantitatively studied by measuring the peak areas of the promoiety capped and released model peptides. Agilent 6110 Quadrupole LC-MS was employed to verify the change of mass in the course of reaction.
The RP-HPLC analysis was performed using a Shimadzu LC-2010A HT system and a 150 mm×4.6 mm Zorbax 300SB-C18 column. The flow rate was 1 ml/min. Solvent A contained 0.1% TFA/5% CH3CN in deionized water, and solvent B contained 0.1% TFA in 100% CH3CN. A linear gradient was employed (e.g., 10-70% B in 10 minutes).
The rate of cleavage was determined for the respective promoiety capped model peptides. The concentrations of the promoiety capped model peptides and the released model peptides were determined by their respective peak areas. The first order dissociation rate constant of a promoiety capped model peptide was determined by plotting the logarithm of [starting promoiety capped model peptide]/[remaining promoiety capped model peptide] at various time intervals. The half life for cleavage of a promoiety capped model peptide was calculated by using the equation and the slope derived from this plot.
The cleavage half lives of various promoieties linked to the model peptides were determined using the procedures described above.

Structure (SMILES) | half-life at 1 mg/mL
CCCCCCCCCC(=O)Nc1ccc2c(c1)CN(C(=O)[C@H](C)N)[C@H](C(=O)NCC(=O)N[C@H](C(=O)N[C@H](C(=O)N[C@@H](CCC(=O)O)C(=O)N[C@@H](CCC(N)=O)C(=O)N[C@@H](C)C(=O)N[C@@H](C)C(=O)O)C(C)C)[C@@H](C)CC)C2 (H-A[X13]GIVEQAA-OH) | 38.9 h
CC[C@H](C)[C@H](NC(=O)CNC(=O)c1c(C)cc(CN)cc1CN)C(=O)N[C@H](C(=O)N[C@@H](CCC(=O)O)C(=O)N[C@@H](CCC(N)=O)C(=O)N[C@@H](C)C(=O)N[C@@H](C)C(=O)O)C(C)C (X5-GIVEQAA-OH; N-terminus and C-terminus assumed) | 300 h
CC[C@H](C)[C@H](NC(=O)CNC(=O)c1ccc(S(=O)(=O)CCN)cc1CN)C(=O)N[C@H](C(=O)N[C@@H](CCC(=O)O)C(=O)N[C@@H](CCC(N)=O)C(=O)N[C@@H](C)C(=O)N[C@@H](C)C(=O)O)C(C)C (X9-GIVEQAA-OH) | 28.1 h
CC[C@H](C)[C@H](NC(=O)CNC(=O)c1cc(N)cc(C)c1CN)C(=O)N[C@H](C(=O)N[C@@H](CCC(=O)O)C(=O)N[C@@H](CCC(N)=O)C(=O)N[C@@H](C)C(=O)N[C@@H](C)C(=O)O)C(C)C (X12-GIVEQAA-OH; N-terminus and C-terminus assumed) | 85 h

same assay, conditions: PBS, 37° C., 1 mg/mL, RP-HPLC; read-out: t 1/2 (h), cleavage of promoiety linked to N terminus of model peptide X-[…] (converted)

half-life at 1 mg/mL | Structure (SMILES)
193 h | N[C@@H](CO)c1nncn1[C@@H](CCCCNC(=O)OCC1c2ccccc2-c2ccccc21)C(=O)O
262 h | CCCCCCCCCC(=O)NCCCC[C@H](N)C(=O)N1CCc2ccccc2[C@H]1C(=O)NCC(=O)N[C@H](C(=O)N[C@H](C(=O)N[C@@H](CCC(=O)O)C(=O)N[C@@H](CCC(N)=O)C(=O)N[C@@H](C)C(=O)N[C@@H](C)C(=O)N[C@@H](Cc1ccc(O)cc1)C(=O)O)C(C)C)[C@@H](C)CC (H-K(Decanoyl)[Tiq1c(1S)]GIVEQAAY-OH)
597 h | CC[C@H](C)[C@H](NC(=O)CNC(=O)c1ncccc1CN)C(=O)N[C@H](C(=O)N[C@@H](CCC(=O)O)C(=O)N[C@@H](CCC(N)=O)C(=O)N[C@@H](C)C(=O)N[C@@H](C)C(=O)N[C@@H](Cc1ccc(O)cc1)C(=O)O)C(C)C (X7-GIVEQAAY-OH; C-terminus assumed)
482 h | CC[C@H](C)[C@H](NC(=O)CNC(=O)Cc1ccccc1CN)C(=O)N[C@H](C(=O)N[C@@H](CCC(=O)O)C(=O)N[C@@H](CCC(N)=O)C(=O)N[C@@H](C)C(=O)N[C@@H](C)C(=O)N[C@@H](Cc1ccc(O)cc1)C(=O)O)C(C)C ({Phenylacetic(2-CH2NH2)}-GIVEQAAY-OH; C-terminus assumed)

Continued, molecule first:

Structure (SMILES) | half-life at 1 mg/mL
N[C@@H](CCCCNC(=O)OCC1c2ccccc2-c2ccccc21)c1nncn1[C@@H](CO)C(=O)O | 79.7 h
CC[C@H](C)[C@H](NC(=O)CNC(=O)c1cccnc1CN)C(=O)N[C@H](C(=O)N[C@@H](CCC(=O)O)C(=O)N[C@@H](CCC(N)=O)C(=O)N[C@@H](C)C(=O)N[C@@H](C)C(=O)N[C@@H](Cc1ccc(O)cc1)C(=O)O)C(C)C (X4-GIVEQAAY-OH; C-terminus assumed) | 458 h
CCCCCCCCCC(=O)NCCCNC(=O)c1ccc(C(=O)NCC(=O)N[C@H](C(=O)N[C@H](C(=O)N[C@@H](CCC(=O)O)C(=O)N[C@@H](CCC(N)=O)C(=O)N[C@@H](C)C(=O)N[C@@H](C)C(=O)N[C@@H](Cc2ccc(O)cc2)C(=O)O)C(C)C)[C@@H](C)CC)c(CN)c1 (X6-GIVEQAAY-OH) | 181 h
CC[C@H](C)[C@H](NC(=O)CNC(=O)c1ccc(C(=O)NCCCN)cc1CN)C(=O)N[C@H](C(=O)N[C@@H](CCC(=O)O)C(=O)N[C@@H](CCC(N)=O)C(=O)N[C@@H](C)C(=O)N[C@@H](C)C(=O)N[C@@H](Cc1ccc(O)cc1)C(=O)O)C(C)C (X11-GIVEQAAY-OH) | 112 h
CC[C@H](C)[C@H](NC(=O)CNC(=O)c1ccccc1CN)C(=O)N[C@H](C(=O)N[C@@H](CCC(=O)O)C(=O)N[C@@H](CCC(N)=O)C(=O)N[C@@H](C)C(=O)N[C@@H](C)C(=O)N[C@@H](Cc1ccc(O)cc1)C(=O)O)C(C)C ({2(aminomethyl)benzoyl}-GIVEQAAY-OH; C-terminus assumed) | 1030 h

same assay, conditions: compound drawn; stated after the PBS tables; read-out: Half life for cleavage (converted)

half-life at 1 mg/mL | Structure (SMILES)
779 h | Cc1cc(C(=O)O)cc(CN)c1C(=O)NCCc1ccc(N)cc1
